Results from US7572436B1, “Thionin as an antineoplastic and immunostimulant” (priority 2000, dated 2009).
Where no end group is shown, it is not given here.

Legend:
IL-1 = experiment: ELISA of IL-1 production by splenocytes; type: cell-based, Balb C murine; settings: 48 hours, PT 0.05 μg/ml
Protocol: (§1) Identical plates are set up for an immunoassay and a mitogen assay. Mouse splenocytes and immuno-stimulating drugs are plated in duplicate wells (immunoassay) and triplicate wells (mitogen assay) in 96-well microplates as described above. The incubation at 37° C. in a humidified 5% CO2 incubator may vary from three to five days. At the end of the activation/proliferation period, the two identical plates are harvested as an immunoassay for cytokines or harvested as a mitogen assay (to which ^3H-thymidine has been added approximately 16-18 hours earlier).
(§2) Immunoassay kits used to detect IL-1β, IL-2, and IL-12 were the murine Quantikine M™ kits produced by R&D Systems (Minneapolis, Minn.). The general procedure is the same for all interleukin cytokines, and is described in the instructions provided by the manufacturer. All reagents are used at room temperature, and are prepared according to kit instructions.
(§3) The immunoassay plate is centrifuged at 200×g to pellet all cells. A 50 μl aliquot of Assay Diluent is first added to the center of each special enzyme-coated well supplied with the kit. Next, 50 μl of standard, control or test sample of supernatant from the immunoassay incubation plate is added to each well. This is incubated at room temperatures for two hours.
Liquid is aspirated from the wells, and the wells are washed five times with surfactant diluted 1:25 with distilled water. A 100 μL aliquot of Conjugate is added to each well and incubated two hours at room temperature. The wells are again aspirated and each well washed five times.
One hundred microliters of Substrate Solution are added to each well and incubated 30 minutes at room temperature. Stop Solution (100 μl) is then added to each well. The color change is light blue to yellow (activity). The plate is read for absorbence at 450 nm and at 540 nm for background readings.
(§4) To calculate the results, the duplicate readings for each pair of standard, control, and test samples are averaged and the average background optical density readings are subtracted. A standard curve is constructed for the cytokine by plotting the mean absorbence for each standard on the y-axis against the concentration on the x-axis and drawing a best-fit curve. Picograms of cytokine are determined from the standard curve. Mitogenic activity determined from the cpm of ^3H-thymidine is compared to the concentrations of cytokine in the experimental samples in the corresponding immunoassay.
One measure of macrophage activation is the production of the cytokine interleukin-1 (IL-1) and also interleukin-12 (IL-12). Incubation of 3×10^5 Balb C murine spleen cells with 0.05 μg/ml PT was performed for 48 hours. The supernatant fluid was assayed with commercial ELISA kits for IL-1 and IL-12. […] Some experiments gave less […] and some more. This is likely a reflection of the state of the immune system in the experimental mice. The addition of KLH, an effective antigen, increased both IL-1 and IL-12 production, and the addition of PT along with the KLH further increased the production of these cytokines.

IL-12 = experiment: ELISA of IL-12 production by splenocytes; type: cell-based, Balb C murine; settings: 48 hours, PT 0.05 μg/ml
Protocol: as §1, §2, §3
Liquid is aspirated from the wells, and the wells are washed five times with surfactant diluted 1:25 with distilled water. A 100 μL aliquot of Conjugate is added to each well and incubated two hours at room temperature. […]
(§5) One hundred microliters of Substrate Solution are added to each well and incubated 30 minutes at room temperature. […] The plate is read for absorbence at 450 nm and at 540 nm for background readings.
as §4, with “A standard curve is constructed for the cytokine by plotting the mean absorbence for each standard on the y-axis against the concentration on the x-axis and drawing a best-fit curve.” left out, “immunoassay. […]” for “immunoassay.”

IL-2 = experiment: ELISA of IL-2 production by splenocytes; type: cell-based; settings: Balb C murine spleen cells, 0.05 μg/ml PT, 48 hours
Protocol: as §1, with “The incubation at 37° C. in a humidified 5% CO2 incubator may vary from three to five days.” left out
Immunoassay kits used to detect IL-1β, IL-2, and IL-12 were the murine Quantikine M™ kits produced by R&D Systems (Minneapolis, Minn.). The general procedure is the same for all interleukin cytokines, and is described in the instructions provided by the manufacturer. […]
as §5
as §4, with “A standard curve is constructed for the cytokine by plotting the mean absorbence for each standard on the y-axis against the concentration on the x-axis and drawing a best-fit curve.” left out, “immunoassay. […]” for “immunoassay.”

In the case of “Pyrularia thionin (KSCCRNTWARNCYNVCRLPGTISREICAKKCDCKIISGTTCPSDYPK; ends and bridges not checked; also: labeled with 125I) [PT]”, the immunogenicity (Immunogenicity of PT) is reported as “not immunogenic”, the IL-1 (IL-1; Experiment 1, KLH 10 μg/ml, control 3.9) is reported as 6.0 ± 0.2 pg/mL and the IL-1 (IL-1; Experiment 3, control 2) is reported as 2.4 ± 0 pg/mL. The IL-1 (IL-1; Experiment 4, KLH (20 mg/ml), control 9) was 14 ± 0.9 pg/mL, the IL-12 (IL-12; Experiment 1, KLH 10 μg/ml, control 1.5) was 5.6 ± 0.3 pg/mL and the IL-12 (IL-12; Experiment 2, control 21) was 24 ± 0.3 pg/mL. For the same substance, the “stimulation of production of IL-2” value (IL-2) was “not conclusive”.
